Measurements: patent US6686349B2, “Substituted tetracyclic pyrroloquinolone derivatives useful as phosphodiesterase inhibitors” (Ortho-McNeil Pharmaceutical, Inc., priority 2001, dated 2004)

Target: PDEV (UniProt O76074)
Experiment: In vitro determination of Ki for phosphodiesterase inhibitors (PDEV)
Assay type: biochemical, rabbit and human tissues
Settings: 30 nM 3H-cGMP, 30° C. for 90 minutes; Ki is equivalent to the IC50 value
Procedure: Cyclic Nucleotide Phosphodiesterase (PDE) Assay
PDEV was isolated from rabbit and human tissues according to the protocol described by Boolell et al. (Boolell, M., Allen, M. J., Ballard, S. A., Ge[o-Attee, Muirhead, G. J., Naylor, A. M., Osterloh, I. H., and Gingell, C) in International Journal of Impotence Research 1996 8, 47-52 with minor modifications.
Briefly, rabbit or human tissues were homogenized in an ice-cold buffer solution containing 20 mM HEPES (pH 7.2), 0.25M sucrose, 1 mM EDTA, and 1 mM PMSF. The homogenates were centrifuged at 100,000 g for 60 minutes at 4° C. The supernatant was filtered through […] filter and loaded on a Pharmacia Mono Q anion exchange column (1 ml bed volume) that was equilibrated with 20 mM HEPES, 1 mM EDTA and 0.5 mM PMSF. After washing out unbound proteins, the enzymes were eluted with a linear gradient of 100-600 mM NaCl in the same buffer (35 to 50 ml total, depending on the tissue. Enzymes from the skeletal muscle, corpus cavernosum, retina, heart and platelet were eluted with 35, 40, 45, 50, and 50 ml respectively.) The column was run at a flow rate of 1 ml/min and 1 ml fractions were collected. The fractions comprising various PDE activities were pooled separately and used in later studies. […]
In Vitro Determination of Ki for Phosphodiesterase Inhibitors
The assays were adapted to a 96-well format. Phosphodiesterase was assayed in 5 mM MgCl2, 15 mM Tris HCl (pH 7.4), 0.5 mg/ml bovine serum albumin, 30 nM ^3H-cGMP and test compound at various concentrations. The amount of enzyme used for each reaction was such that less than 15% of the initial substrate was converted during the assay period. For all measurements, the test compound was dissolved and diluted in 100% DMSO (2%DMSO in assay). The total volume of the assay was 100 μl. The reaction mixture was incubated at 30° C. for 90 minutes. The reaction was stopped by boiling for 1 minute and then immediately cooled by transfer to an ice bath. To each well was then added 25 μl 1 mg/ml snake venom (Ophiophagus hannah) and the reaction mixture incubating at 30° C. for 10 minute. The reaction was stopped by the addition of 1 ml Bio-Rad AG1-X2 resin slurry (1:3). An aliquot of 200 μl was taken and counted by liquid scintillation.
The % inhibition of the maximum substrate conversion (by the enzyme in the absence of inhibitor) was calculated for each test compound concentration. Using GraphPad Prism's nonlinear regression analysis (sigmoidal dose response), the % inhibition vs log of the test compound concentration was plotted to determine the IC50. Under conditions where substrate concentration<<Km of the enzyme (Km=substrate concentration at which half of the maximal velocity of the enzyme is achieved), Ki is equivalent to the IC50 value.
Following the procedures as described in Examples 10 and 11 herein, representative compounds of the instant invention were tested for PDEV and PDEVI activity. PDEV inhibitory activities for these compounds are presented as Ki values (nM) in the Table 4.

SMILES	Ki [nM]
CN1CC(=O)N2C(C1=O)c1c([nH]c3ccccc3c1=O)[C@H]2c1ccc2c(c1)OCO2 (stereo in doubt) [Compound 9, 11-Benzo[1,3]dioxol-5-yl-3-methyl-2,3,4a,11-tetrahydro-10H-3,10,11a-triaza-benzo[b]fluorene-1,4,5-trione]	48
CN1CC(=O)N2[C@H](c3ccc4c(c3)CCO4)c3[nH]c4ccccc4c(=O)c3[C@@H]2C1=O [Compound 1, 11-(2,3-Dihydro-benzofuran-5-yl)-3-methyl-2,3,4a,11-tetrahydro-10H-3,10,11a-triaza-benzo[b]fluorene-1,4,5-trione]	7
CN1CC(=O)N2[C@H](c3ccc4c(c3)CCO4)c3[nH]c4ccccc4c(=O)c3[C@H]2C1=O [Compound 2, 11-(2,3-Dihydro-benzofuran-5-yl)-3-methyl-2,3,4a,11-tetrahydro-10H-3,10,11a-triaza-benzo[b]fluorene-1,4,5-trione]	69
CN1CC(=O)N2[C@@H](c3ccc4c(c3)OCO4)c3[nH]c4ccccc4c(=O)c3[C@H]2C1=O [Compound 3, 11-Benzo[1,3]dioxol-5-yl-3-methyl-2,3,4a,11-tetrahydro-10H-3,10,11a-triaza-benzo[b]fluorene-1,4,5-trione]	17
CN1CC(=O)N2[C@@H](c3ccc4c(c3)OCO4)c3[nH]c4ccccc4c(=O)c3[C@@H]2C1=O [Compound 4, 11-Benzo[1,3]dioxol-5-yl-3-methyl-2,3,4a,11-tetrahydro-10H-3,10,11a-triaza-benzo[b]fluorene-1,4,5-trione]	80
O=C1[C@H]2c3c([nH]c4ccccc4c3=O)[C@@H](c3ccc4c(c3)OCO4)N2C(=O)CN1Cc1ccccc1 [Compound 5, 11-Benzo[1,3]dioxol-5-yl-3-benzyl-2,3,4a,11-tetrahydro-10H-3,10,11a-triaza-benzo[b]fluorene-1,4,5-trione]	123
CN1CCC(=O)N2[C@H](c3ccc4c(c3)OCO4)c3[nH]c4ccccc4c(=O)c3[C@@H]2C1=O [Compound 7, 11-Benzo[1,3]dioxol-5-yl-7-methyl-5b,8,9,12-tetrahydro-7H,11H-7,10a,12-triaza-naphtho[2,3-a]azulene-5,6,10-trione]	148
CN1CC(=O)N2[C@H](c3ccc4c(c3)OCO4)c3[nH]c4ccccc4c(=O)c3[C@@H]2C1=O [Compound 8, 11-Benzo[1,3]dioxol-5-yl-3-methyl-2,3,4a,11-tetrahydro-10H-3,10,11a-triaza-benzo[b]fluorene-1,4,5-trione]	14
O=C1[C@H]2c3c([nH]c4ccccc4c3=O)[C@@H](c3ccc4c(c3)OCO4)N2C(=O)CN1Cc1ccccn1 [Compound 10, 11-Benzo{1,3]dioxol-5-yl-3-pyridin-2-ylmethyl-2,3,4a,11-tetrahydro-10H-3,10,11a-triaza-benzo[b]fluorene-1,4,5-trione]	63

System: not listed separately
Experiment: In vivo testing following the procedure of Carter et al.
Settings: J. Urology 1998, 160, 242-246
Procedure: Following the procedure disclosed by Carter et al., (Carter, A. J., Ballard, S. A., and Naylor, A. M.) in The Journal of Urology 1998, 160, 242-246, compound #8 was tested as active for in vivo activity.

SMILES	in vivo activity
CN1CC(=O)N2[C@H](c3ccc4c(c3)OCO4)c3[nH]c4ccccc4c(=O)c3[C@@H]2C1=O [Compound 8, 11-Benzo[1,3]dioxol-5-yl-3-methyl-2,3,4a,11-tetrahydro-10H-3,10,11a-triaza-benzo[b]fluorene-1,4,5-trione]	active

System: not given
Experiment: not given
Settings: use of sildenafil; non-selective effects on a variety of tissues; cited from earlier work

SMILES	undesirable side effects
CCCc1nn(C)c2c(=O)[nH]c(-c3cc(S(=O)(=O)N4CCN(C)CC4)ccc3OCC)nc12 [sildenafil, 5-[2-ethoxy-5-(4-methylpiperazin-1-ylsulphonyl)phenyl]-1-methyl-3-n-propyl-6,7-dihydro-1H-pyrazolo[4,3-d]pyrimidin-7-one]	headache, flushing and disrupted color vision
